This passage reports IC50 results from patent publication US8729082B2, “Substituted imidazoquinoxalines” (Bayer Intellectual Property GmbH, priority 2009, dated 2014).

The assay has as its target T1, human kinase Mps-1 (Homo sapiens, UniProt P33981).
T1 construct: N-terminally GST-tagged human full length recombinant Mps-1 kinase; purchased Invitrogen, Karslruhe, Germany PV4071
T1 sequence (P33981 1-857): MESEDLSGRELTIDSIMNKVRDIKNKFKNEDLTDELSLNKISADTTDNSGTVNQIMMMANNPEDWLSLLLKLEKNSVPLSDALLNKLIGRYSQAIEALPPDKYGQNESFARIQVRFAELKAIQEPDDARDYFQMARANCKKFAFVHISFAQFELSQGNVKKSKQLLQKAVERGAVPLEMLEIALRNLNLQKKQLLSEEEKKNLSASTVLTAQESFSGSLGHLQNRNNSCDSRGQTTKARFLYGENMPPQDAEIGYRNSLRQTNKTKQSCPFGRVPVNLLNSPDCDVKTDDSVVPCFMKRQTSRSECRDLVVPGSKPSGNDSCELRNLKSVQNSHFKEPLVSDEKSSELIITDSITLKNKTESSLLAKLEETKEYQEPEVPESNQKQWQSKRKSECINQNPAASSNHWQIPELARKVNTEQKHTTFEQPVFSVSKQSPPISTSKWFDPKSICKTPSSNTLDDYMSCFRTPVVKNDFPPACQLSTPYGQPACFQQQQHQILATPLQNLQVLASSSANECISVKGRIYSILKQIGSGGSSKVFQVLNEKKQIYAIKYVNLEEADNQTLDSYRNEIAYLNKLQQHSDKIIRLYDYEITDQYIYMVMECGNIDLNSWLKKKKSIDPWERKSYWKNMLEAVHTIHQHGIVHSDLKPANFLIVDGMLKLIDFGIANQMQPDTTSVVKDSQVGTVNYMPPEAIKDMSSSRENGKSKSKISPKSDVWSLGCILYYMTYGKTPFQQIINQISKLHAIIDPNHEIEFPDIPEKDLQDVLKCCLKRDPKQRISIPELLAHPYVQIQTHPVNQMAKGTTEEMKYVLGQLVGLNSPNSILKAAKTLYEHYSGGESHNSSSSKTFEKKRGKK
As to the kind of experiment: Mps-1 kinase assay (HTRF). Format: biochemical. Conditions: lowATP; mean; read-out: Mps1 lowATP mean IC50. A digest of the protocol:
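HTRF readout: EDTA-stopped reactions incubated 1 h with europium anti-phospho(Ser/Thr) antibody and streptavidin-XLent, emission ratio 665/620 nm after 350 nm excitation. Kinase step: compound pre-bound 15 min to ~1 nM GST-Mps-1, then 60 min at 22 °C with ATP and biotin-peptide substrate; inhibition scaled between no-inhibitor (0%) and no-enzyme (100%) controls.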
Background: In TR-FRET formats the signal depends on donor and acceptor labels being close together.
`COCCCNc1nc2cc(F)c(F)cc2n2c(-c3ccc(C(=O)NC4CC4)cc3)cnc12` [Example 2-108, N-cyclopropyl-4-{7,8-difluoro-4-[(3-methoxypropyl)amino]imidazo[1,2-a]quinoxalin-1-yl}benzamide]: the half-maximal inhibitory concentration (IC50) (as a rule, the concentration at which inhibition is half-maximal) is 0.114 µM.

Consider `Cn1ccc(CNc2nc3cc(F)c(F)cc3n3c(-c4ccc(C(=O)NC5CC5)cc4)cnc23)n1` [Example 2-109, N-cyclopropyl-4-(7,8-difluoro-4-{[(1-methyl-1H-pyrazol-3-yl)methyl]amino}imidazo[1,2-a]quinoxalin-1-yl)benzamide], for which the 50% inhibitory concentration (IC50) amounted to 0.256 µM. Turning to `Cn1nccc1CNc1nc2cc(F)c(F)cc2n2c(-c3ccc(C(=O)NC4CC4)cc3)cnc12` [Example 2-110, N-cyclopropyl-4-(7,8-difluoro-4-{[(1-methyl-1H-pyrazol-5-yl)methyl]amino}imidazo[1,2-a]quinoxalin-1-yl)benzamide], the IC50 was determined as 0.0285 µM. As for `Cn1cc(CNc2nc3cc(F)c(F)cc3n3c(-c4ccc(C(=O)NC5CC5)cc4)cnc23)cn1` [Example 2-111, N-cyclopropyl-4-(7,8-difluoro-4-{[(1-methyl-1H-pyrazol-4-yl)methyl]amino}imidazo[1,2-a]quinoxalin-1-yl)benzamide], the IC50 was 0.0796 µM. For `NS(=O)(=O)CCNc1nc2cc(F)c(F)cc2n2c(-c3ccc(C(=O)NC4CC4)cc3)cnc12` [Example 2-112, N-cyclopropyl-4-{7,8-difluoro-4-[(2-sulfamoylethyl)amino]imidazo[1,2-a]quinoxalin-1-yl}benzamide], the IC50 came to 0.053 µM.

Regarding `O=C(NC1CC1)c1ccc(-c2cnc3c(NCC(O)CO)nc4cc(F)c(F)cc4n23)cc1` (stereo not drawn) [Example 2-113, N-cyclopropyl-4-{4-[(2,3-dihydroxypropyl)amino]-7,8-difluoroimidazo[1,2-a]quinoxalin-1-yl}benzamide], the IC50 stood at 0.197 µM. In the case of `CCCNc1nc2cc(F)c(F)cc2n2c(-c3ccc(NC(=O)NC)cc3)cnc12` [Example 2-114, 1-{4-[7,8-difluoro-4-(propylamino)imidazo[1,2-a]quinoxalin-1-yl]phenyl}-3-methylurea], the IC50 was determined as 16 µM. `CNC(=O)Nc1ccc(-c2cnc3c(NCCCN4CCCC4=O)nc4cc(F)c(F)cc4n23)cc1` [Example 2-115, 1-[4-(7,8-difluoro-4-{[3-(2-oxopyrrolidin-1-yl)propyl]amino}imidazo[1,2-a]quinoxalin-1-yl)phenyl]-3-methylurea]: the IC50 was found to be 16.1 µM.

Take `CNC(=O)Nc1ccc(-c2cnc3c(NCCCO)nc4cc(F)c(F)cc4n23)cc1` [Example 2-116, 1-(4-{7,8-difluoro-4-[(3-hydroxypropyl)amino]imidazo[1,2-a]quinoxalin-1-yl}phenyl)-3-methylurea]: the IC50 was found to be 5.34 µM. On to `CCCCNc1nc2cc(F)c(F)cc2n2c(-c3ccc(NC(=O)NC)cc3)cnc12` [Example 2-117, 1-{4-[4-(butylamino)-7,8-difluoroimidazo[1,2-a]quinoxalin-1-yl]phenyl}-3-methylurea], for which the half-maximal inhibitory concentration (IC50) was 19.4 µM. Regarding `CNC(=O)Nc1ccc(-c2cnc3c(NCCNC(C)=O)nc4cc(F)c(F)cc4n23)cc1` [Example 2-118, N-{2-[(7,8-difluoro-1-{4-[(methylcarbamoyl)amino]phenyl}imidazo[1,2-a]quinoxalin-4-yl)amino]ethyl}acetamide], the IC50 was determined as 12.7 µM.

As to `CNC(=O)Nc1ccc(-c2cnc3c(NCCCn4ccnc4)nc4cc(F)c(F)cc4n23)cc1` [Example 2-119, 1-[4-(7,8-difluoro-4-{[3-(1H-imidazol-1-yl)propyl]amino}imidazo[1,2-a]quinoxalin-1-yl)phenyl]-3-methylurea], the IC50 came out at 7.02 µM. As for `CNC(=O)Nc1ccc(-c2cnc3c(NCC4CC4)nc4cc(F)c(F)cc4n23)cc1` [Example 2-120, 1-(4-{4-[(cyclopropylmethyl)amino]-7,8-difluoroimidazo[1,2-a]quinoxalin-1-yl}phenyl)-3-methylurea], the IC50 was determined as 5.86 µM.

As to `CNC(=O)Nc1ccc(-c2cnc3c(NCc4ccccn4)nc4cc(F)c(F)cc4n23)cc1` [Example 2-121, 1-(4-{7,8-difluoro-4-[(pyridin-2-ylmethyl)amino]imidazo[1,2-a]quinoxalin-1-yl}phenyl)-3-methylurea], the half-maximal inhibitory concentration (IC50) worked out at 6.7 µM. To `CNC(=O)Nc1ccc(-c2cnc3c(NCc4cccnc4)nc4cc(F)c(F)cc4n23)cc1` [Example 2-122, 1-(4-{7,8-difluoro-4-[(pyridin-3-ylmethyl)amino]imidazo[1,2-a]quinoxalin-1-yl}phenyl)-3-methylurea] belongs 4.08 µM.

For `CNC(=O)Nc1ccc(-c2cnc3c(NCc4ccncc4)nc4cc(F)c(F)cc4n23)cc1` [Example 2-123, 1-(4-{7,8-difluoro-4-[(pyridin-4-ylmethyl)amino]imidazo[1,2-a]quinoxalin-1-yl}phenyl)-3-methylurea], the concentration for half-maximal inhibition (IC50) was 3.55 µM. As for `CCCNc1nc2cc(F)c(F)cc2n2c(-c3ccc(C(=O)NC4CC4)c(Cl)c3)cnc12` [Example 2-124, 2-chloro-N-cyclopropyl-4-[7,8-difluoro-4-(propylamino)imidazo[1,2-a]quinoxalin-1-yl]benzamide], the IC50 was 0.319 µM.

As to `O=C(NC1CC1)c1ccc(-c2cnc3c(NCCCN4CCCC4=O)nc4cc(F)c(F)cc4n23)cc1Cl` [Example 2-125, 2-chloro-N-cyclopropyl-4-(7,8-difluoro-4-{[3-(2-oxopyrrolidin-1-yl)propyl]amino}imidazo[1,2-a]quinoxalin-1-yl)benzamide], the IC50 was found to be 9.64 µM. Regarding `COCCNc1nc2cc(F)c(F)cc2n2c(-c3ccc(C(=O)NC4CC4)c(Cl)c3)cnc12` [Example 2-126, 2-chloro-N-cyclopropyl-4-{7,8-difluoro-4-[(2-methoxyethyl)amino]imidazo[1,2-a]quinoxalin-1-yl}benzamide], the concentration for half-maximal inhibition (IC50) worked out at 4.89 µM. Turning to `O=C(NC1CC1)c1ccc(-c2cnc3c(NCc4ccccc4F)nc4cc(F)c(F)cc4n23)cc1Cl` [Example 2-127, 2-chloro-N-cyclopropyl-4-{7,8-difluoro-4-[(2-fluorobenzyl)amino]imidazo[1,2-a]quinoxalin-1-yl}benzamide], the IC50 is 3.81 µM. As for `O=C(NC1CC1)c1ccc(-c2cnc3c(NCc4ccc(F)cc4)nc4cc(F)c(F)cc4n23)cc1Cl` [Example 2-128, 2-chloro-N-cyclopropyl-4-{7,8-difluoro-4-[(4-fluorobenzyl)amino]imidazo[1,2-a]quinoxalin-1-yl}benzamide], the IC50 was determined as 17.3 µM. `O=C(NC1CC1)c1ccc(-c2cnc3c(NCCCCO)nc4cc(F)c(F)cc4n23)cc1Cl` [Example 2-129, 2-chloro-N-cyclopropyl-4-{7,8-difluoro-4-[(4-hydroxybutyl)amino]imidazo[1,2-a]quinoxalin-1-yl}benzamide]: the IC50 is 2.26 µM. Take `O=C(NC1CC1)c1ccc(-c2cnc3c(NCCCO)nc4cc(F)c(F)cc4n23)cc1Cl` [Example 2-130, 2-chloro-N-cyclopropyl-4-{7,8-difluoro-4-[(3-hydroxypropyl)amino]imidazo[1,2-a]quinoxalin-1-yl}benzamide]: the half-inhibitory concentration (IC50) was found to be 3.13 µM. The value for `CCCCNc1nc2cc(F)c(F)cc2n2c(-c3ccc(C(=O)NC4CC4)c(Cl)c3)cnc12` [Example 2-131, 4-[4-(butylamino)-7,8-difluoroimidazo[1,2-a]quinoxalin-1-yl]-2-chloro-N-cyclopropylbenzamide] was 3.73 µM.
